Where two headings read alike, the source gives them in different places.
Experiments:
Assay in all cases: Kinase binding screen
Conditions in all cases: read-out: Percent Control at 100 nM Compound Concentration
[1] = target: CTK (Homo sapiens (Human), UniProt P42679)
[2] = target: SRC (Homo sapiens (Human), UniProt P12931)
[3] = target: SIK (Homo sapiens (Human), UniProt P57059)
[4] = target: p38-gamma (Homo sapiens (Human), UniProt P53778)
[5] = target: ULK1 (Homo sapiens (Human), UniProt O75385)
[6] = target: JAK1(JH2domain-pseudokinase) (Homo sapiens (Human), UniProt P23458)
[7] = target: MAP4K2 (Homo sapiens (Human), UniProt Q12851)
[8] = target: VPS34 (Homo sapiens (Human), UniProt Q8NEB9)
[9] = target: FLT3(K663Q) (Homo sapiens (Human), UniProt P36888, K663Q)
[10] = target: IRAK1 (Homo sapiens (Human), UniProt P51617)
[11] = target: ANKK1 (Homo sapiens (Human), UniProt Q8NFD2)
[12] = target: RIPK4 (Homo sapiens (Human), UniProt P57078)
[13] = target: CAMK1G (Homo sapiens (Human), UniProt Q96NX5)
[14] = target: EGFR(S752-I759del) (Homo sapiens (Human), UniProt P00533, DEL752-759)
[15] = target: NEK10 (Homo sapiens (Human), UniProt Q6ZWH5)
[16] = target: ALK(L1196M) (Homo sapiens (Human), UniProt Q9UM73, L1196M)
[17] = target: TRPM6 (Homo sapiens (Human), UniProt Q9BX84)
[18] = target: EGFR (Homo sapiens (Human), UniProt P00533)
[19] = target: ADCK3 (Homo sapiens (Human), UniProt Q8NI60)
[20] = target: DLK (Homo sapiens (Human), UniProt Q12852)
[21] = target: PIP5K1C (Homo sapiens (Human), UniProt O60331)
[22] = target: TYK2(JH2domain-pseudokinase) (Homo sapiens (Human), UniProt P29597)
[23] = target: BUB1 (Homo sapiens (Human), UniProt O43683)
[24] = target: BTK (Homo sapiens (Human), UniProt Q06187)
[25] = target: IKK-alpha (Homo sapiens (Human), UniProt O15111)
[26] = target: MRCKA (Homo sapiens (Human), UniProt Q5VT25)
[27] = target: FLT3-autoinhibited (Homo sapiens (Human), UniProt P36888)
[28] = target: ZAP70 (Homo sapiens (Human), UniProt P43403)
[29] = target: FGFR4 (Homo sapiens (Human), UniProt P22455)

IRAK1, sequence (P51617 whole entry): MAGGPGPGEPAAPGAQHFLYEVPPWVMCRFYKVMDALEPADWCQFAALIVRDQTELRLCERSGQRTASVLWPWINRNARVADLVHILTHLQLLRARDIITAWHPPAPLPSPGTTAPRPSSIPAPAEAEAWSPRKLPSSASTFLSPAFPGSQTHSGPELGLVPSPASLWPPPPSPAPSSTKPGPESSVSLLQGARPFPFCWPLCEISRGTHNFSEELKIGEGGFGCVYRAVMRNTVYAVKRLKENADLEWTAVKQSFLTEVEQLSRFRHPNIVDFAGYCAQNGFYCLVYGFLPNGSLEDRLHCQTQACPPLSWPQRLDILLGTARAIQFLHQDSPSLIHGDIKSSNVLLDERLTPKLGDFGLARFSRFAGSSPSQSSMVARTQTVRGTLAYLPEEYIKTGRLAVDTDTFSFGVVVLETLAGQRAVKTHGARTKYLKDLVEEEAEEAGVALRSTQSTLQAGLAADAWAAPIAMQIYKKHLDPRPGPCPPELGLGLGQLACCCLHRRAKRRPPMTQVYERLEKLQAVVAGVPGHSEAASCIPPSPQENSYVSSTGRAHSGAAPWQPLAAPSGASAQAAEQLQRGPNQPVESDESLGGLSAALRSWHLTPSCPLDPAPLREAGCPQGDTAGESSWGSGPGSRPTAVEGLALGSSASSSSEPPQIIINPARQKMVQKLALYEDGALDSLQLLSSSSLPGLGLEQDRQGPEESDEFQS
DLK, sequence (Q12852 whole entry): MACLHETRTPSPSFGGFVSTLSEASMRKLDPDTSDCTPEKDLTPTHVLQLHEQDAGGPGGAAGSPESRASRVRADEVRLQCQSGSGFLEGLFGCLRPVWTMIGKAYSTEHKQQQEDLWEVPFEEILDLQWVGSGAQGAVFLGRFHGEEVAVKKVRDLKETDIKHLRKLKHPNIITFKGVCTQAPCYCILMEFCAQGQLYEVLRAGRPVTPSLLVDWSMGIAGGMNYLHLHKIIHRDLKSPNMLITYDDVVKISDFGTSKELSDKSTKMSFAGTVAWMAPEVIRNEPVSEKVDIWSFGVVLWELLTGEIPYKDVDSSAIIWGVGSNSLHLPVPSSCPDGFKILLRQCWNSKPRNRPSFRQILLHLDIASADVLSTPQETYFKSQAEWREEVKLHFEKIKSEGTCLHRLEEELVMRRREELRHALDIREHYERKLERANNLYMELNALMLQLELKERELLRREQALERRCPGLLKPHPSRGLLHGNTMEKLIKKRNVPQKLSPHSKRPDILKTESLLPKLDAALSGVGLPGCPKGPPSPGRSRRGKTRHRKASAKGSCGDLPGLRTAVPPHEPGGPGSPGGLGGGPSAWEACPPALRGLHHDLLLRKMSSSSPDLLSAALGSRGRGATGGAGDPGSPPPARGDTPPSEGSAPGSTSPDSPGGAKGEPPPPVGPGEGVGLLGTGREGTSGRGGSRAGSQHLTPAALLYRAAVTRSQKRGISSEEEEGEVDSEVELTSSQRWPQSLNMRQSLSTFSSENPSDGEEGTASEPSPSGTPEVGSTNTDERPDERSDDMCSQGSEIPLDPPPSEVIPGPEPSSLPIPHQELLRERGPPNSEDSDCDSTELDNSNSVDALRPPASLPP
p38-gamma, sequence (P53778 whole entry): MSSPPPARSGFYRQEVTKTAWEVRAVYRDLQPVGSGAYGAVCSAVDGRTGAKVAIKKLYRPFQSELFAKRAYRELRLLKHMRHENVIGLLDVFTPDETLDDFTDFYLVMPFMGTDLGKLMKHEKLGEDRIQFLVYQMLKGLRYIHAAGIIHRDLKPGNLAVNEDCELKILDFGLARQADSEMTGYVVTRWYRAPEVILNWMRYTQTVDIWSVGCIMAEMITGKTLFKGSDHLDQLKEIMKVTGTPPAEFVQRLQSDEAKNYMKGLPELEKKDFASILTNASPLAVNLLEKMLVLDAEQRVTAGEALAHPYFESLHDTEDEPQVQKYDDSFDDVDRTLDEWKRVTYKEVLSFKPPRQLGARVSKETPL
ZAP70, sequence (P43403 whole entry): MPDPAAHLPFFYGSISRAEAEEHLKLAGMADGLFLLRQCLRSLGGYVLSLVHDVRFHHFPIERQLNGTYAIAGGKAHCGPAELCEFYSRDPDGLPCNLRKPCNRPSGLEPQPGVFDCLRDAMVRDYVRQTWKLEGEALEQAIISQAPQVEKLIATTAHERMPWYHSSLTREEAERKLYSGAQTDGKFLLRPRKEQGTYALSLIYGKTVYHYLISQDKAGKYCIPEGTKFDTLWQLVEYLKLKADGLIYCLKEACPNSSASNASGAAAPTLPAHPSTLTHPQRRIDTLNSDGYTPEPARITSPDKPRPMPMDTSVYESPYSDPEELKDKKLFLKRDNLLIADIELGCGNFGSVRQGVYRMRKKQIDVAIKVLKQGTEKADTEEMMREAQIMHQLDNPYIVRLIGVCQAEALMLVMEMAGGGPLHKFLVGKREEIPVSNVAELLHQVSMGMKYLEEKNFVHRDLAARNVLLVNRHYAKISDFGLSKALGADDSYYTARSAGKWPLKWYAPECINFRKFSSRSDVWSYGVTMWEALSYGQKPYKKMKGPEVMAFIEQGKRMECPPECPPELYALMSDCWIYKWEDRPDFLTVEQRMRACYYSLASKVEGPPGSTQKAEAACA
CTK, sequence (P42679 whole entry): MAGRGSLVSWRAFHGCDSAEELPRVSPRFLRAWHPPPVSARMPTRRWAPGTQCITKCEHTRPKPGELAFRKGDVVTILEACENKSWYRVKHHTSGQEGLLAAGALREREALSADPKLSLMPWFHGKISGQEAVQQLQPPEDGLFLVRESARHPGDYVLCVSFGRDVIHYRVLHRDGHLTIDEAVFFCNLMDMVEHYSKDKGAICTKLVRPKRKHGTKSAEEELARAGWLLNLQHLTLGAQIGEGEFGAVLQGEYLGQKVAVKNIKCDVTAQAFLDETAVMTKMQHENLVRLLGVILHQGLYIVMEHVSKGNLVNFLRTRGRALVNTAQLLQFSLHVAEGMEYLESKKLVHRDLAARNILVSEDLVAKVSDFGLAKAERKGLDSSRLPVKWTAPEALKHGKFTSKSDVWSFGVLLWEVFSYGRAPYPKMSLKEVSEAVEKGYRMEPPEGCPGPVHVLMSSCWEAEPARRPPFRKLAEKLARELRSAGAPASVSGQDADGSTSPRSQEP
ULK1, sequence (O75385 whole entry): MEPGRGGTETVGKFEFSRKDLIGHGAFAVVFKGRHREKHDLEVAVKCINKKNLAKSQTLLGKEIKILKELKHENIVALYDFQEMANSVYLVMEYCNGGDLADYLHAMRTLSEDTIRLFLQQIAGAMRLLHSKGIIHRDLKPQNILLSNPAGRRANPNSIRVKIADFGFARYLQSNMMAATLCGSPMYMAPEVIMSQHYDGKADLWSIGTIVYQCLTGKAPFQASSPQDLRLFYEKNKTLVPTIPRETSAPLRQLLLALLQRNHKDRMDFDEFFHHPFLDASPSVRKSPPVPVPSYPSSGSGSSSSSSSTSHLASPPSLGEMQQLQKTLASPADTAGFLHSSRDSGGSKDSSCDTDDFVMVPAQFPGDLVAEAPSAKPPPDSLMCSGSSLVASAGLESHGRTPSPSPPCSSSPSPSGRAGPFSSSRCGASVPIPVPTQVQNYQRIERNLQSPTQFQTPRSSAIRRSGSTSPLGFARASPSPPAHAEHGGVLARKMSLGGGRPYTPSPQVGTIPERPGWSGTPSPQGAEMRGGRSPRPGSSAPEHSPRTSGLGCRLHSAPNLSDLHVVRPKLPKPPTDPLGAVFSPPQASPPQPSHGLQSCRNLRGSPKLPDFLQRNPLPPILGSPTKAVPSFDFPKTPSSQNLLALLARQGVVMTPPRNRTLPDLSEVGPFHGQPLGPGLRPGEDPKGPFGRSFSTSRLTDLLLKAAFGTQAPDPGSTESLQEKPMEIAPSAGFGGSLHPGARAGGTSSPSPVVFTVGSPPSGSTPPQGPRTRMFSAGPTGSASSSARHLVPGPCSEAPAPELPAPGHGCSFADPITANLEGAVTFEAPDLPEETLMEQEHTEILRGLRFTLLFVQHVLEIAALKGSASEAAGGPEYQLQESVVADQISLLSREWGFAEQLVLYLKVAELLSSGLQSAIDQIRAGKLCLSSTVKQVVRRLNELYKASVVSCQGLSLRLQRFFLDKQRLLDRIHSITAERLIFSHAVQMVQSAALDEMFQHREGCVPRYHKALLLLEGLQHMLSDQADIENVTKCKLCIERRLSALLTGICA
TYK2(JH2domain-pseudokinase), sequence (P29597 589-875): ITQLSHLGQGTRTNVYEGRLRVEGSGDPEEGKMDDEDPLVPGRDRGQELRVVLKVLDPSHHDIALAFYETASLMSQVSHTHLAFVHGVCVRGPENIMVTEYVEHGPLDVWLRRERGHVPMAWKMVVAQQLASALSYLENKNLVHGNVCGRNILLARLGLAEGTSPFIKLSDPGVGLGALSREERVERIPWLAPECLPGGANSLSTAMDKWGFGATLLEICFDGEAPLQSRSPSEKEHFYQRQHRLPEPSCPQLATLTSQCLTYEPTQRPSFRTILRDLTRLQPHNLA
SRC, sequence (P12931 whole entry, looked up): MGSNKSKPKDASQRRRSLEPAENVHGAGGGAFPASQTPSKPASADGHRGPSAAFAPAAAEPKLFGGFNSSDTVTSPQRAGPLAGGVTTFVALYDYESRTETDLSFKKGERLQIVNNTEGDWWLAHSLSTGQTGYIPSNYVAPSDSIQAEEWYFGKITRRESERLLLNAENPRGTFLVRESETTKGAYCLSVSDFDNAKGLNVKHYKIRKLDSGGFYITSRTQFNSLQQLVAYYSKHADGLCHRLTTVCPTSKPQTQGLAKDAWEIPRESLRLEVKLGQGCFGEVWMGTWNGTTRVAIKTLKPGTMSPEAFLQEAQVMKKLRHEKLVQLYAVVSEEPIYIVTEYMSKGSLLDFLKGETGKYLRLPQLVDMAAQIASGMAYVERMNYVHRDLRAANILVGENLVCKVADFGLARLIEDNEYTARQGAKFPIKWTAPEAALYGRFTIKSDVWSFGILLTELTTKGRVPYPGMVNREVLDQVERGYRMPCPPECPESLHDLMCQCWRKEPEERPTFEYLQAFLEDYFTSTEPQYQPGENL

CN(C[C@@H](O)Cc1ccccc1)C(=O)c1cncc(C#Cc2cnn(C(F)F)c2)c1 [Example 2, (S)-5-((1-(difluoromethyl)-1H-pyrazol-4-yl)ethynyl)-N-(2-hydroxy-3-phenylpropyl)-N-methylnicotinamide]
remaining activity at 0.1 µM ([1]; CTK): 100%
remaining activity at 0.1 µM ([2]; SRC): 97%
remaining activity at 0.1 µM ([3]; SIK): 100%
remaining activity at 0.1 µM ([4]; p38-gamma): 100%
remaining activity at 0.1 µM ([5]; ULK1): 100%
remaining activity at 0.1 µM ([6]; JAK1(JH2domain-pseudokinase)): 93%
remaining activity at 0.1 µM ([7]; MAP4K2): 88%
remaining activity at 0.1 µM ([8]; VPS34): 87%
remaining activity at 0.1 µM ([9]; FLT3(K663Q)): 100%
remaining activity at 0.1 µM ([10]; IRAK1): 91%
remaining activity at 0.1 µM ([11]; ANKK1): 100%
remaining activity at 0.1 µM ([12]; RIPK4): 100%
remaining activity at 0.1 µM ([13]; CAMK1G): 93%
remaining activity at 0.1 µM ([14]; EGFR(S752-I759del)): 100%
remaining activity at 0.1 µM ([15]; NEK10): 91%
remaining activity at 0.1 µM ([16]; ALK(L1196M)): 100%
remaining activity at 0.1 µM ([17]; TRPM6): 99%
remaining activity at 0.1 µM ([18]; EGFR): 93%
remaining activity at 0.1 µM ([19]; ADCK3): 100%
remaining activity at 0.1 µM ([20]; DLK): 100%
remaining activity at 0.1 µM ([21]; PIP5K1C): 100%
remaining activity at 0.1 µM ([22]; TYK2(JH2domain-pseudokinase)): 100%
remaining activity at 0.1 µM ([23]; BUB1): 93%
remaining activity at 0.1 µM ([24]; BTK): 100%
remaining activity at 0.1 µM ([25]; IKK-alpha): 100%
remaining activity at 0.1 µM ([26]; MRCKA): 100%
remaining activity at 0.1 µM ([27]; FLT3-autoinhibited): 95%
remaining activity at 0.1 µM ([28]; ZAP70): 98%
remaining activity at 0.1 µM ([29]; FGFR4): 100%

CN(C[C@H](Cc1ccccc1)OP(=O)(O)O)C(=O)c1cncc(C#Cc2cnn(C(F)F)c2)c1 [Example 19, (S)-1-(5-((1-(difluoromethyl)-1H-pyrazol-4-yl)ethynyl)-N-methylnicotinamido)-3-phenylpropan-2-yl dihydrogen phosphate]
remaining activity at 0.1 µM [1]: 90%
remaining activity at 0.1 µM [2]: 100%
remaining activity at 0.1 µM [3]: 100%
remaining activity at 0.1 µM [4]: 88%
remaining activity at 0.1 µM [5]: 100%
remaining activity at 0.1 µM [6]: 86%
remaining activity at 0.1 µM [7]: 83%
remaining activity at 0.1 µM [8]: 90%
remaining activity at 0.1 µM [9]: 100%
remaining activity at 0.1 µM [10]: 86%
remaining activity at 0.1 µM [11]: 100%
remaining activity at 0.1 µM [12]: 100%
remaining activity at 0.1 µM [13]: 100%
remaining activity at 0.1 µM [14]: 100%
remaining activity at 0.1 µM [15]: 100%
remaining activity at 0.1 µM [16]: 100%
remaining activity at 0.1 µM [17]: 95%
remaining activity at 0.1 µM [18]: 100%
remaining activity at 0.1 µM [19]: 100%
remaining activity at 0.1 µM [20]: 100%
remaining activity at 0.1 µM [21]: 85%
remaining activity at 0.1 µM [22]: 90%
remaining activity at 0.1 µM [23]: 85%
remaining activity at 0.1 µM [24]: 96%
remaining activity at 0.1 µM [25]: 99%
remaining activity at 0.1 µM [26]: 100%
remaining activity at 0.1 µM [27]: 96%
remaining activity at 0.1 µM [28]: 98%
remaining activity at 0.1 µM [29]: 100%

— US11767310B2, “Nicotinamide RIPK1 inhibitors” (AbbVie Inc., priority 2021, dated 2023)
